Measurements from publication PMC10525132, “Potent Antioxidant and Anti-Tyrosinase Activity of Butein and Homobutein Probed by Molecular Kinetic and Mechanistic Studies” (Antioxidants, 2023).
Where “and” joins values, the source holds several entries; their conditions need not be identical. Equal entries are not always repeated. Where two headings read alike, the source gives them in different places.

What was measured:
[1] = cited from earlier work
[2] = Inhibited autoxidation of methyl linoleate in Triton X-100 micelles (O2 uptake kinetics)
Procedure: Autoxidation studies were performed as previously described, with slight modifications. In a typical experiment, 2.5 mL of air-saturated buffered (PBS, 50 mM, pH 7.4) aqueous dispersion of MeLin (final concentration 2.74 mM) in Triton™ X-100 (final concentration 16 mM) micelles were prepared by vortex mixing. A fresh stock solution of AAPH was added (final concentration 2.5 mM), immediately followed by addition (5–30 μL) of a stock solution of the antioxidant in acetonitrile (final concentration of 1–20 μM) and by additional vortex mixing (5 s). The mixture was sealed in a 2 mL glass vial provided with a PTFE-coated stirring bar and capped with the O2 sensor. The sample was equilibrated at 37 °C in a thermostatted bath equipped with a sealed magnetic stirrer, and oxygen concentration was monitored with time as previously described. Oxygen consumption in the absence of antioxidants was compared with that recorded in the presence of butein, homobutein, or α-tocopherol (α-TOH) as the reference antioxidant. […]. The stoichiometric factor n was determined from the length of the inhibited period τ by Equation (3). The rate of initiation Ri was determined in preliminary experiments using α-TOH as the inhibitor (n = 2) by Equation (3). (1) −d[O2]/dt=kp[RH]Ri/nkinh[AH]+Ri (2) R0/Rinh−Rinh/R0=nkinh[AH]/2ktRi (3) n=Riτ/[AH]
To study the antioxidant activity of butein and homobutein on quantitative grounds, we performed inhibited autoxidation studies using biomimetic neutral micelles of methyl linoleate (MeLin) in aqueous Triton™ X-100 (with 50 mM PBS, pH 7.4, 37 °C), since it is a well-validated model we and others used in previous studies. The reaction kinetics was followed by monitoring oxygen consumption via miniaturized NIR-fluorescence-quenching O2 probes, according to a previously validated protocol, both in the absence and in the presence of different concentrations of butein or homobutein. The reaction was initiated thermally in the aqueous phase by the controlled decomposition of the azo compound AAPH so as to clearly distinguish the chain-breaking mechanism from other efficacies based on interference with the initiation process (e.g., the Fenton reaction by metal chelation) and α-TOH was used as the reference antioxidant.

[3] = design: method as in doi:10.1021/ja00310a049; details: reference value used for calibration, cited from earlier work

## CC(C)(C)c1cc(O)c(O)c(C(C)(C)C)c1 [3,5-di-tert-butylcatechol]
[1]
  BDEOH: 78.2 kcal/mol

## CC(C)(C)c1cc(C(C)(C)C)c(O)c(C(C)(C)C)c1 [TBP, 2,4,6-tri-tert-butylphenol]
[1]; reference phenol
  BDEOH: 80.1 kcal/mol

## OCCc1ccc(O)c(O)c1 [hydroxytyrosol]
[1]
  BDEOH: 80.8 kcal/mol

## Cc1c(C)c2c(c(C)c1O)CC[C@@](C)(CCC[C@H](C)CCC[C@H](C)CCCC(C)C)O2 [α-TOH, (R,R,R)-α-tocopherol]
[2]; AAPH (2.5 mM) initiated autoxidation of MeLin/Triton X-100 micelles, 37 °C, pH 7.4
  kinh (inhibition rate constant): 22.4 ± 5.8 10^3 M^−1s^−1
[2]; MeLin in Triton X-100 micelles, pH 7.4, 37 °C
  kinh (inhibition rate constant): (2.2 ± 0.6) × 10^4 M^−1s^−1
[3]
  n (stoichiometric factor of peroxyl radical trapping): 2 and 2 ^2
[3]; listed as tocopherol
  n (stoichiometric factor of peroxyl radical trapping): 2.0
[1]
  BDEOH: 77.1 ^3 kcal/mol
